This note sets out measurements from ChEMBL document CHEMBL1201862, “PubChem BioAssay data set” (2004).

The source made the active and inactive calls. For most assays here, no stated cut-off is given here; in the data, actives have a measured IC50 and inactives only a lower limit. Some results are limits rather than exact numbers.

For data set [1], the target named is Cytochrome P450 2C9 (Homo sapiens, UniProt P11712).
Data set [2] has as its target T1, Cytochrome P450 1A2 (Homo sapiens, UniProt P05177).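 Further: PubChem cytochrome P450 panel assay, CYP1A2 panel member.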
T1 sequence (P05177 whole entry): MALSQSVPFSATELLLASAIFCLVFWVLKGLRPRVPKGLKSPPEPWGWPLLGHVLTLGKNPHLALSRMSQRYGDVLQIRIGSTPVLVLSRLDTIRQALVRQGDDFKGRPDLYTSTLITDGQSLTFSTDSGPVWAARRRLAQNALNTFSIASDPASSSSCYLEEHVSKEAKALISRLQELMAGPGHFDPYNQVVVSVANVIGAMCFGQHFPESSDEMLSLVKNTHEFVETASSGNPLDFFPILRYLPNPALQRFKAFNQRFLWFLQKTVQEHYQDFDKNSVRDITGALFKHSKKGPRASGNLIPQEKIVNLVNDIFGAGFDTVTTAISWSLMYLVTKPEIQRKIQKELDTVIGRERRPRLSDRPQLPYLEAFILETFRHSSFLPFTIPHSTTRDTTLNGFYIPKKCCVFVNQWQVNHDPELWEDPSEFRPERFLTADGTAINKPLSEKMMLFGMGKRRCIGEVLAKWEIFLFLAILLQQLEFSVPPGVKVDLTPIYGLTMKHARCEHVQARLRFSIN

Data set [3] concerns the target T2, Type-1 angiotensin II receptor (Homo sapiens, UniProt P30556).
T2 sequence (P30556 whole entry): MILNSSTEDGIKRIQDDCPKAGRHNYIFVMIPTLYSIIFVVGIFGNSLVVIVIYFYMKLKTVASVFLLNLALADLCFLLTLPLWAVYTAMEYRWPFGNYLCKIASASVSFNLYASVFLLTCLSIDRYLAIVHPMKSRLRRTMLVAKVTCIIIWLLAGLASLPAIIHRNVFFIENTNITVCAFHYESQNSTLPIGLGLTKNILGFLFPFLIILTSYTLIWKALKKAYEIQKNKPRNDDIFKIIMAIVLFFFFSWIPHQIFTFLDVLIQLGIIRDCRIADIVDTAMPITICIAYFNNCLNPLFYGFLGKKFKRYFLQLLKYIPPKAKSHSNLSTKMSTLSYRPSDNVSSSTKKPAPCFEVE
The experiment in a line: AT1 receptor antagonists, dose response, selectivity assay for APJ receptor antagonist project, cell-based, uHTS hits (AID 463214).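 Further: antagonist potency against angiotensin II stimulated AT1 response.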 In kind it is functional.

Data set [4] concerns the target Beta-galactosidase (Escherichia coli, UniProt Q8VNN2). Description: PubChem AID 485352. In kind it is functional.
Data set [5] has as its target T3, Carboxy-terminal domain RNA polymerase II polypeptide A small phosphatase 1 (Homo sapiens, UniProt Q9GZU7).
T3 sequence (Q9GZU7 whole entry): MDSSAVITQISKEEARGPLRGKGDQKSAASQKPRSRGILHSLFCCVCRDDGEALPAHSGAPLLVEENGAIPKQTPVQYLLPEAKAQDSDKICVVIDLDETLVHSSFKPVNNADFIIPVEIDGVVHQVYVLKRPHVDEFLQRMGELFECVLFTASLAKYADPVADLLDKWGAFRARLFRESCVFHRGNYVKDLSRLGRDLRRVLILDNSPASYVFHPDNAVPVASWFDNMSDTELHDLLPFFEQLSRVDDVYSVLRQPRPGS
Description: inhibitors of CTDSP1, concentration-response testing, biochemical assay, absorbance-based, actives from ultra-high-throughput screening (AID 540297). In kind it is functional.

For data set [6], the target named is DNA dC->dU-editing enzyme APOBEC-3A (Homo sapiens, UniProt P31941). The experiment in a line: Dose Response confirmation of small molecule APOBEC3A DNA Deaminase Inhibitors via a fluorescence-based single-stranded DNA deaminase assay. [Related pubchem assays (depositor defined):AID493011, AID493024]. Format: functional.
In data set [7] the target is DNA dC->dU-editing enzyme APOBEC-3G (Homo sapiens, UniProt Q9HC16). In kind it is functional.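 Further: Dose-response counterscreen measuring inhibition of APOBEC3G DNA deaminase activity, run while confirming APOBEC3A inhibitors.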
Data set [8] concerns the target T4, Tyrosine-protein phosphatase non-receptor type 22 (Homo sapiens, UniProt Q9Y2R2).
T4 sequence (Q9Y2R2 whole entry): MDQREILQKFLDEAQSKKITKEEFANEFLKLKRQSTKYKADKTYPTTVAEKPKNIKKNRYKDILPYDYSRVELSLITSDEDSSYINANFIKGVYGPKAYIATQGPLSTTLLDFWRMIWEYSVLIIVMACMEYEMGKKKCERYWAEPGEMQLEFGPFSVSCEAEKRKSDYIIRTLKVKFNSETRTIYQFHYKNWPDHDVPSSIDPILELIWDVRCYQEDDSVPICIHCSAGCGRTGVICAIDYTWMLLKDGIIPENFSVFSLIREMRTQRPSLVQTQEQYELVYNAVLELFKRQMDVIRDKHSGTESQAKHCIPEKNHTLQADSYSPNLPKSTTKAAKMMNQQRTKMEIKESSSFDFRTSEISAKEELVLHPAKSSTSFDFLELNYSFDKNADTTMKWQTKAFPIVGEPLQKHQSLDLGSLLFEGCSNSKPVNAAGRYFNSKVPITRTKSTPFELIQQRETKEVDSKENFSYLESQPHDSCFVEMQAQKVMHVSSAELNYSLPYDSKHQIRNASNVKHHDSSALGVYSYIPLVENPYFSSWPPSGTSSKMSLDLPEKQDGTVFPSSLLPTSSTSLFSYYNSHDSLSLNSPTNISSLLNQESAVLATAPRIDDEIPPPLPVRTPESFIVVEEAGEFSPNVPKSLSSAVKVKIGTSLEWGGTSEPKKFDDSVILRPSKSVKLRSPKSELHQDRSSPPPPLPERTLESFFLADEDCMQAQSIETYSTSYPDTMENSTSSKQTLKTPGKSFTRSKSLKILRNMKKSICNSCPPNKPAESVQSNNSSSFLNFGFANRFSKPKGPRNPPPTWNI
In kind it is functional.

Data set [9] deals with T5, Tyrosine-protein phosphatase non-receptor type 7 (Homo sapiens, UniProt P35236).
T5 sequence (P35236 whole entry): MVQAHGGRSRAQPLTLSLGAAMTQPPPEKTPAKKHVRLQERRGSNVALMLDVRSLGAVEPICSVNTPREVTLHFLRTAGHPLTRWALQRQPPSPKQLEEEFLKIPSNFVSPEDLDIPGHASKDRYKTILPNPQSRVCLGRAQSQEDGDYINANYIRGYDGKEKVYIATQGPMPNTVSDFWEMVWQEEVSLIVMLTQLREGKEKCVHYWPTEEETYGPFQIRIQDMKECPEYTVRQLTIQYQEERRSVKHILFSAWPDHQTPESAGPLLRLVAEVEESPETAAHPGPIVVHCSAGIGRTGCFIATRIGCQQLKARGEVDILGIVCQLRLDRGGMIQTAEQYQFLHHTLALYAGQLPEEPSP
In kind it is functional.

Data set [10] concerns the target T4, Tyrosine-protein phosphatase non-receptor type 22. In kind it is functional. This is another data set of the same source.
Data set [11] deals with Tumor necrosis factor (Homo sapiens, UniProt P01375). The experiment in a line: TNFa-triggered NF-kB activation inhibitors, SAR follow-up, cell-based, revised (AID 2337). In kind it is functional.
The test system of data set [12] is HEK293. The experiment in a line: cells. Conditions: Homo sapiens.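 Further: cells exposed to compound for 14 hours overnight before viability readout.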
Data set [13] has as its target Voltage-dependent T-type calcium channel subunit alpha-1H (Homo sapiens, UniProt O95180). In kind it is functional.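 Further: channel activity triggered by adding a high calcium stimulation buffer.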

In general, AC50 refers to the midpoint of the concentration-response curve, whichever way the signal moves. A word on the IC50: it is the concentration at which inhibition is half-maximal. One may read the EC50 as the concentration that produces a half-maximal response.

Beta-galactosidase, sequence (Q8VNN2 whole entry, the tested form may be a part): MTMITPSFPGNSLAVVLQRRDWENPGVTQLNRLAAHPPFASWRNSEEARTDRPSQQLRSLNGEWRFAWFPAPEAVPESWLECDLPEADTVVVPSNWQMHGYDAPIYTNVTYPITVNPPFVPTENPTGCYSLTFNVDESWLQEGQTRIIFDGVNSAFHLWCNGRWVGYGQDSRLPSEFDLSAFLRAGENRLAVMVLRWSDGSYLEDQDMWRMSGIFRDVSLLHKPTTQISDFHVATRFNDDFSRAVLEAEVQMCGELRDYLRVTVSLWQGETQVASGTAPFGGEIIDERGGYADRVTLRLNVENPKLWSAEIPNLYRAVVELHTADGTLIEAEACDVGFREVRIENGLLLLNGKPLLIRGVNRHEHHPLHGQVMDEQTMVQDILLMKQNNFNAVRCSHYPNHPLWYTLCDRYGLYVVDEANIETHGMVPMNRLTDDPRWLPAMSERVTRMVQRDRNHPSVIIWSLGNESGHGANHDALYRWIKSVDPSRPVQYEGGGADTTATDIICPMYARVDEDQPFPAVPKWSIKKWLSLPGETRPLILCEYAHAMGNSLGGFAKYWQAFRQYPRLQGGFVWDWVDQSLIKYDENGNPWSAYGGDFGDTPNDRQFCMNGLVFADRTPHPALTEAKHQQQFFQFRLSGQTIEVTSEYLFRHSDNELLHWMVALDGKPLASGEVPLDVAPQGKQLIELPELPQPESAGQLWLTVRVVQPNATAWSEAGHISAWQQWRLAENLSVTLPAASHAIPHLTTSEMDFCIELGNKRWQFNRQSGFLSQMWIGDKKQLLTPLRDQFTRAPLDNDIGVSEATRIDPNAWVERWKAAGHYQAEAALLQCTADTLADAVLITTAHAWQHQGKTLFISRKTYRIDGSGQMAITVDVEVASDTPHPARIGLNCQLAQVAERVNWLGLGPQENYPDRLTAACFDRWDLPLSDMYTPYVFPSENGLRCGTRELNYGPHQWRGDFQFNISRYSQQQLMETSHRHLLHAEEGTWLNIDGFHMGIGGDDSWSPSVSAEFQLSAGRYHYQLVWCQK
Cytochrome P450 2C9, sequence (P11712 whole entry): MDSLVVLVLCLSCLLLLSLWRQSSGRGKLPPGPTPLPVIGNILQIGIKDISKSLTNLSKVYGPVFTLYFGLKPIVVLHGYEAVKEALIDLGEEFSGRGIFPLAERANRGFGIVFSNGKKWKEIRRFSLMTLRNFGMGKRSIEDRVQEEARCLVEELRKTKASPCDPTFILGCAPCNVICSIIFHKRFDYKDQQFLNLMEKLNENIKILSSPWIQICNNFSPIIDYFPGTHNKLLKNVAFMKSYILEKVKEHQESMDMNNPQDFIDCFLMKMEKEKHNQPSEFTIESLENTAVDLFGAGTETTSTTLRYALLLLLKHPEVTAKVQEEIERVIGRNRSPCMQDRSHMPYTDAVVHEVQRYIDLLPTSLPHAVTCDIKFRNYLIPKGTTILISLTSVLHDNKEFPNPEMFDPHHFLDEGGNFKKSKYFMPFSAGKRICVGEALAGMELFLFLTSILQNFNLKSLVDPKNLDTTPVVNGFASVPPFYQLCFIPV
DNA dC->dU-editing enzyme APOBEC-3A, sequence (P31941 whole entry): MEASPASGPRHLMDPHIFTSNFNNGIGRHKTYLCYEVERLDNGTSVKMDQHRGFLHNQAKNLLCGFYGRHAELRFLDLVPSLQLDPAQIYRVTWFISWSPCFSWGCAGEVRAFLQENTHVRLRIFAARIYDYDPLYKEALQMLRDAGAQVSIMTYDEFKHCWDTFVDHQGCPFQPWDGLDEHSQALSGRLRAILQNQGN
Voltage-dependent T-type calcium channel subunit alpha-1H, sequence (O95180 whole entry): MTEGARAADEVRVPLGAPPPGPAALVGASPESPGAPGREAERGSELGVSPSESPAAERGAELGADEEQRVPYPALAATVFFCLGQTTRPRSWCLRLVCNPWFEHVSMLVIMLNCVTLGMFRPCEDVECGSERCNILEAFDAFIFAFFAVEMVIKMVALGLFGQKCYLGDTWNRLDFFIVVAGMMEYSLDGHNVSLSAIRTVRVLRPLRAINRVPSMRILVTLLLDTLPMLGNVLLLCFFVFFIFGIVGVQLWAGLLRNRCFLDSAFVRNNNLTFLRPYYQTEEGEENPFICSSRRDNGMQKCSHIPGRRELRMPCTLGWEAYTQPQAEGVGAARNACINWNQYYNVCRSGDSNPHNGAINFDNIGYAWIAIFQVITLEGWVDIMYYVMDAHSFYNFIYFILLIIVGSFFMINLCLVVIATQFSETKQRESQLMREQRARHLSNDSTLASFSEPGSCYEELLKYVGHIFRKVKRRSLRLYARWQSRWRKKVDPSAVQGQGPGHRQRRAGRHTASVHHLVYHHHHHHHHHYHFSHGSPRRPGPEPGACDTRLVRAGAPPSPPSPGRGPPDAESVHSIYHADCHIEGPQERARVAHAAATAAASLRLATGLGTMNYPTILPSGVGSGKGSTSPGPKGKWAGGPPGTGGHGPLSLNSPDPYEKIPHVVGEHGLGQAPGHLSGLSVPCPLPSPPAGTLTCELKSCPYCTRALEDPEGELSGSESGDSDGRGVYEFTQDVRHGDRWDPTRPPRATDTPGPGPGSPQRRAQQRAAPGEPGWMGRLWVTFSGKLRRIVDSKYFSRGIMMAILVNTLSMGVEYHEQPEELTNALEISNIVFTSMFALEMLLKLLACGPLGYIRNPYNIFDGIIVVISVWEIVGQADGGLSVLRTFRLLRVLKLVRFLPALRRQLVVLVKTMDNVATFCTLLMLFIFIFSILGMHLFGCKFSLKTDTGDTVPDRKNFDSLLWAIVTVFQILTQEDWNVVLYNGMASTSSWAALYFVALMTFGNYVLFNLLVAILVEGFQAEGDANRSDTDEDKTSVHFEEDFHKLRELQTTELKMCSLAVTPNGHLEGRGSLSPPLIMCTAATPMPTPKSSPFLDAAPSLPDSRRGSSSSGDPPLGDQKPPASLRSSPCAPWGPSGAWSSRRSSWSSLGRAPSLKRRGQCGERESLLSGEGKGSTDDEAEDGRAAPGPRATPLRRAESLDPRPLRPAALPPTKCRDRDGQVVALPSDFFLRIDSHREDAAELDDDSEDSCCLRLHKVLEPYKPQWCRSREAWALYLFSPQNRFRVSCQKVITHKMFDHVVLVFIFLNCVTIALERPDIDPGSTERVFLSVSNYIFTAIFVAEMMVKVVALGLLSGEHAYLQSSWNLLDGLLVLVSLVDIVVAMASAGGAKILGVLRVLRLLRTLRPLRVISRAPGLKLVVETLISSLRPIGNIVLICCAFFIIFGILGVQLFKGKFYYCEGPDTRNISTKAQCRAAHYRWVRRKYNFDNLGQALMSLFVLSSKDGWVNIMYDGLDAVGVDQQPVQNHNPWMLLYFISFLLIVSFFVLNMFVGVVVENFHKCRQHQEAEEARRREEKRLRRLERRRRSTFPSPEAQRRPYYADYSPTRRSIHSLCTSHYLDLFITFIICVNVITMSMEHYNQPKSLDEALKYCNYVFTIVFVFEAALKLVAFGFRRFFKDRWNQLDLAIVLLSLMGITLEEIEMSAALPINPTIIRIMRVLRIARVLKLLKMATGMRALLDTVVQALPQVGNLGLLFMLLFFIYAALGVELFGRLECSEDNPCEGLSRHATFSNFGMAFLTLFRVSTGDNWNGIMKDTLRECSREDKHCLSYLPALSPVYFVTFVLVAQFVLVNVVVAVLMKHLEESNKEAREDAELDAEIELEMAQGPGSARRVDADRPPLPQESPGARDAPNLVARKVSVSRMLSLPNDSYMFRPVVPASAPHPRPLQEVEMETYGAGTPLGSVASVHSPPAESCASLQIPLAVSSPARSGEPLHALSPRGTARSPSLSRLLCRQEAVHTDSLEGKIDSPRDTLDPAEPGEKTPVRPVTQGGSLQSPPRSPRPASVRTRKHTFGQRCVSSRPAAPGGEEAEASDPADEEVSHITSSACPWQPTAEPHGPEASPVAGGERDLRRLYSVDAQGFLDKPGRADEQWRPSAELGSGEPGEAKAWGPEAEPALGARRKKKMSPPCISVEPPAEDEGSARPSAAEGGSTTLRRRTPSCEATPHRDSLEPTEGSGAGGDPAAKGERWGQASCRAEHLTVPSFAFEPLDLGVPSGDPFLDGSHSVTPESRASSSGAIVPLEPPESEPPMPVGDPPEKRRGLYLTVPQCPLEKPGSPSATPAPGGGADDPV
Tumor necrosis factor, sequence (P01375 whole entry): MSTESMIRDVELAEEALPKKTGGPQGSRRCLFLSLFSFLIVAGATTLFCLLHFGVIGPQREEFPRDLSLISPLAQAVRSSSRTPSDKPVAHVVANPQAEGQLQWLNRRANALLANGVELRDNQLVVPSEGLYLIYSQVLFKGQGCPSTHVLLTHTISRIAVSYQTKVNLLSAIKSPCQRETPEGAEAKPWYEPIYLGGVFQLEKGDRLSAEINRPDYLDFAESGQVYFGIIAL
DNA dC->dU-editing enzyme APOBEC-3G, sequence (Q9HC16 whole entry): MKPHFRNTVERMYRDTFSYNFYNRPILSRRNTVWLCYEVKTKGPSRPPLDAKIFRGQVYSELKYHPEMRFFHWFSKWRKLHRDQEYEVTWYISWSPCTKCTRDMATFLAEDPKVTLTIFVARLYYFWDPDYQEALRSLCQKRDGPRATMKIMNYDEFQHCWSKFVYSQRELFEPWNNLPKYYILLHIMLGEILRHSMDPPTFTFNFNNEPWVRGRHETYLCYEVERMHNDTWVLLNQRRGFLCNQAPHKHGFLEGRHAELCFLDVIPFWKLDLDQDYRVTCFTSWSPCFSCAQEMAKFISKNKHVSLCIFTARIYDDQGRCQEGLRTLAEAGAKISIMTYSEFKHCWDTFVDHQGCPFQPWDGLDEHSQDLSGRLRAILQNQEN

For `O=C(CO)N/N=C/c1ccccc1F`, the figures for the AC50 result in data set [1] and in data set [2] were “inconclusive” and 25.1 µM (inconclusive), respectively.
`Nc1c(N2CCCC2)c2ccccc2oc1=O`: in data set [3], the IC50 is 13.7 µM (active). In data set [4], the EC50 is > 40 µM (inactive).
Take `Cc1cc(C)cc(-n2nnnc2SCC(=O)Nc2nc(-c3ccc(Cl)cc3)cs2)c1`: the values for the AC50 result in data set [1] and in data set [2] were “inconclusive” and 7.08 µM (inconclusive), respectively.
Regarding `C[N+]1(C2CCC3CCCC2C3O)CCCCC1` (centres undefined), the IC50 was 6.61 µM (active) in data set [5], 2.42 µM (active) in data set [6] and 2.69 µM (active) in [7].
In the case of `CN(C)S(=O)(=O)N1CCN(S(=O)(=O)c2ccc3ccccc3c2)CC1`, the IC50 in data set [8], in [9] and in data set [10] was > 79.4 µM (inactive) each time.
For the compound `Cc1ccc2nc(C)cc(C(=O)OCC(=O)c3ccc(Cl)c([N+](=O)[O-])c3)c2c1`, the IC50 in [3] was 13.2 µM (active). In addition, the EC50 in data set [4] is > 40 µM (inactive).
On to `CC(=O)N1c2ccc(S(=O)(=O)N3CCN(c4ccc([N+](=O)[O-])cc4)CC3)cc2CC1C` (centres undefined), for which the values for the IC50 in [11] and in data set [12] were 3.27 µM (active) and 14.3 µM (active), respectively.
On to `Cc1ccc(C)c(CN2C(=O)COc3ccc(C(=O)c4ccccc4C(=O)O)cc32)c1`, for which the IC50 in data set [8], in data set [9] and in data set [10] was > 79.4 µM (inactive) each time.
As to `Cc1ccc(NC(=O)COC(=O)c2cc(-c3cccs3)nn2-c2ccccc2)cc1[N+](=O)[O-]`, the IC50 in data set [8], in data set [9] and in data set [10] was > 79.4 µM (inactive) in each case.
For `CCN(CC)c1ccc(/C=C/c2nc3ccccc3s2)cc1`, in data set [1], the AC50 result is given as “inconclusive”. In [13], the EC50 was 6.85 µM (active).
For `CCn1cc(Br)c(C(=O)NC(=S)Nc2ccc(C(=O)OC)cc2)n1`, the IC50 in data set [8], in data set [9] and in [10] was > 79.4 µM (inactive) throughout.
For `Cc1cccc(NC2=c3cccc(Cl)c3=NC2=O)c1`, the IC50 in data set [3] was > 40 µM (not active). Moreover, the EC50 in data set [4] was > 40 µM (inactive).
